Reference: ChEMBL document CHEMBL2331517, “Songaricalarins A-E, cytotoxic oplopane sesquiterpenes from Ligularia songarica” (J Nat Prod, 2013)
In brackets after ≈: the same amount, converted by molar mass.

Assay: Cytotoxicity against human KBVIN cells
Format: functional, cell-based

In the case of `COc1cc([C@@H]2c3cc4c(cc3[C@@H](O[C@@H]3O[C@@H]5CO[C@@H](C)O[C@H]5[C@H](O)[C@H]3O)[C@H]3COC(=O)[C@H]23)OCO4)cc(OC)c1O` [ETOPOSIDE], the EC50 is reported as 8.8 µg/mL (≈ 15 µM).
